# Experimental data from ChEMBL document CHEMBL1201862, “PubChem BioAssay data set” (2004).
#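 Following 48 hours of exposure in 96-well plates, responses at five concentrations were used to interpolate endpoints linearly. The concentration for 50% growth inhibition is given as GI50.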 The source made the active and inactive calls. Rule as the data show it: active = GI50 up to about 1.1 µM and inactive = higher.
# Experiments:
# Test in all cases: growth of human tumour cells (NCI), 48 h
# 786-0 = test system: 786-0
# A498 = test system: A498
# A549 = test system: A549
# ACHN = test system: ACHN
# BT-549 = test system: BT-549
# CAKI-1 = test system: CAKI-1
# CCRF-CEM = test system: CCRF-CEM
# COLO 205 = test system: COLO 205
# DU-145 = test system: DU-145
# EKVX = test system: EKVX
# HCC 2998 = test system: HCC 2998
# HCT-116 = test system: HCT-116
# HCT-15 = test system: HCT-15
# HOP-62 = test system: HOP-62
# HT-29 = test system: HT-29
# Hs-578T = test system: Hs-578T
# IGROV-1 = test system: IGROV-1
# K562 = test system: K562
# KM12 = test system: KM12
# LOX IMVI = test system: LOX IMVI
# M14 = test system: M14
# MCF7 = test system: MCF7
# MDA-MB-231 = test system: MDA-MB-231
# MDA-MB-435 = test system: MDA-MB-435
# MDA-N = test system: MDA-N
# MOLT-4 = test system: MOLT-4
# Malme-3M = test system: Malme-3M
# NCI-H226 = test system: NCI-H226
# NCI-H460 = test system: NCI-H460
# NCI-H522 = test system: NCI-H522
# NCI/ADR-RES = test system: NCI/ADR-RES
# OVCAR-3 = test system: OVCAR-3
# OVCAR-4 = test system: OVCAR-4
# OVCAR-5 = test system: OVCAR-5
# OVCAR-8 = test system: OVCAR-8
# PC-3 = test system: PC-3
# RPMI-8226 = test system: RPMI-8226
# RXF 393 = test system: RXF 393
# SF-268 = test system: SF-268
# SF-295 = test system: SF-295
# SK-MEL-28 = test system: SK-MEL-28
# SK-MEL-2 = test system: SK-MEL-2
# SK-MEL-5 = test system: SK-MEL-5
# SK-OV-3 = test system: SK-OV-3
# SN12C = test system: SN12C
# SNB-19 = test system: SNB-19
# SNB-75 = test system: SNB-75
# SR = test system: SR
# SW-620 = test system: SW-620
# T47D = test system: T47D
# TK-10 = test system: TK-10
# U-251 = test system: U-251
# UACC-257 = test system: UACC-257
# UACC-62 = test system: UACC-62
# UO-31 = test system: UO-31
# HL-60 = test system: HL-60
# NCI-H23 = test system: NCI-H23
# SF-539 = test system: SF-539
compound,measurement,setting,value
O=C1c2cc(Cl)ccc2-n2cnnc2C2CSCN12 (stereo not drawn),GI50,786-0,> 100 µM (inactive)
same,GI50,A498,55.6 µM (inactive)
same,GI50,A549,> 100 µM (inactive)
same,GI50,ACHN,> 100 µM (inactive)
same,GI50,BT-549,> 100 µM (inactive)
same,GI50,CAKI-1,4.54 µM (inactive)
same,GI50,CCRF-CEM,> 100 µM (inactive)
same,GI50,COLO 205,> 100 µM (inactive)
same,GI50,DU-145,> 100 µM (inactive)
same,GI50,EKVX,> 100 µM (inactive)
same,GI50,HCC 2998,> 100 µM (inactive)
same,GI50,HCT-116,> 100 µM (inactive)
same,GI50,HCT-15,> 100 µM
same,GI50,HOP-62,> 100 µM (inactive)
same,GI50,HT-29,> 100 µM (inactive)
same,GI50,Hs-578T,> 100 µM (inactive)
same,GI50,IGROV-1,> 100 µM (inactive)
same,GI50,K562,> 100 µM (inactive)
same,GI50,KM12,> 100 µM (inactive)
same,GI50,LOX IMVI,> 100 µM (inactive)
same,GI50,M14,> 100 µM (inactive)
same,GI50,MCF7,> 100 µM (inactive)
same,GI50,MDA-MB-231,> 100 µM (inactive)
same,GI50,MDA-MB-435,> 100 µM (inactive)
same,GI50,MDA-N,> 100 µM (inactive)
same,GI50,MOLT-4,> 100 µM (inactive)
same,GI50,Malme-3M,> 100 µM (inactive)
same,GI50,NCI-H226,> 100 µM (inactive)
same,GI50,NCI-H460,> 100 µM (inactive)
same,GI50,NCI-H522,> 100 µM (inactive)
same,GI50,NCI/ADR-RES,> 100 µM (inactive)
same,GI50,OVCAR-3,> 100 µM (inactive)
same,GI50,OVCAR-4,> 100 µM (inactive)
same,GI50,OVCAR-5,> 100 µM (inactive)
same,GI50,OVCAR-8,> 100 µM (inactive)
same,GI50,PC-3,> 100 µM (inactive)
same,GI50,RPMI-8226,> 100 µM (inactive)
same,GI50,RXF 393,> 100 µM (inactive)
same,GI50,SF-268,> 100 µM (inactive)
same,GI50,SF-295,> 100 µM (inactive)
same,GI50,SK-MEL-28,> 100 µM (inactive)
same,GI50,SK-MEL-2,> 100 µM (inactive)
same,GI50,SK-MEL-5,> 100 µM (inactive)
same,GI50,SK-OV-3,> 100 µM (inactive)
same,GI50,SN12C,> 100 µM (inactive)
same,GI50,SNB-19,> 100 µM (inactive)
same,GI50,SNB-75,> 100 µM (inactive)
same,GI50,SR,75.2 µM (inactive)
same,GI50,SW-620,> 100 µM (inactive)
same,GI50,T47D,> 100 µM (inactive)
same,GI50,TK-10,> 100 µM (inactive)
same,GI50,U-251,> 100 µM (inactive)
same,GI50,UACC-257,> 100 µM (inactive)
same,GI50,UACC-62,> 100 µM (inactive)
same,GI50,UO-31,> 100 µM (inactive)
O=C(O)[C@@H]1CSCN1C(=O)[C@@H]1CCC(=S)N1,GI50,786-0,> 100 µM (inactive)
same,GI50,A498,> 100 µM (inactive)
same,GI50,A549,> 100 µM (inactive)
same,GI50,ACHN,> 100 µM (inactive)
same,GI50,BT-549,> 100 µM (inactive)
same,GI50,CAKI-1,> 100 µM (inactive)
same,GI50,CCRF-CEM,> 100 µM (inactive)
same,GI50,DU-145,> 100 µM (inactive)
same,GI50,HCC 2998,> 100 µM (inactive)
same,GI50,HCT-15,> 100 µM
same,GI50,HL-60,> 100 µM (inactive)
same,GI50,HOP-62,> 100 µM (inactive)
same,GI50,HT-29,> 100 µM (inactive)
same,GI50,Hs-578T,> 100 µM (inactive)
same,GI50,IGROV-1,> 100 µM (inactive)
same,GI50,K562,> 100 µM (inactive)
same,GI50,KM12,> 100 µM (inactive)
same,GI50,LOX IMVI,> 100 µM (inactive)
same,GI50,M14,> 100 µM (inactive)
same,GI50,MCF7,> 100 µM (inactive)
same,GI50,MDA-MB-231,> 100 µM (inactive)
same,GI50,MDA-MB-435,> 100 µM (inactive)
same,GI50,MDA-N,> 100 µM (inactive)
same,GI50,MOLT-4,> 100 µM (inactive)
same,GI50,Malme-3M,> 100 µM (inactive)
same,GI50,NCI-H226,> 100 µM (inactive)
same,GI50,NCI-H23,> 100 µM (inactive)
same,GI50,NCI-H460,> 100 µM (inactive)
same,GI50,NCI-H522,> 100 µM (inactive)
same,GI50,NCI/ADR-RES,> 100 µM (inactive)
same,GI50,OVCAR-3,> 100 µM (inactive)
same,GI50,OVCAR-5,> 100 µM (inactive)
same,GI50,OVCAR-8,> 100 µM (inactive)
same,GI50,PC-3,> 100 µM (inactive)
same,GI50,RPMI-8226,> 100 µM (inactive)
same,GI50,RXF 393,> 100 µM (inactive)
same,GI50,SF-268,> 100 µM (inactive)
same,GI50,SF-295,> 100 µM (inactive)
same,GI50,SF-539,> 100 µM (inactive)
same,GI50,SK-MEL-28,> 100 µM (inactive)
same,GI50,SK-MEL-2,> 100 µM (inactive)
same,GI50,SK-MEL-5,> 100 µM (inactive)
same,GI50,SK-OV-3,> 100 µM (inactive)
same,GI50,SN12C,> 100 µM (inactive)
same,GI50,SNB-19,> 100 µM (inactive)
same,GI50,SNB-75,> 100 µM (inactive)
same,GI50,SR,> 100 µM (inactive)
same,GI50,SW-620,> 100 µM (inactive)
same,GI50,T47D,> 100 µM (inactive)
same,GI50,TK-10,> 100 µM (inactive)
same,GI50,UACC-257,> 100 µM (inactive)
same,GI50,UACC-62,> 10 µM (inactive)
same,GI50,UO-31,> 100 µM (inactive)
